One compound from ChEMBL document CHEMBL5505996, “Discovery of novel osthole derivatives exerting anti-inflammatory effect on DSS-induced ulcerative colitis and LPS-induced acute lung injury in mice” (Eur J Med Chem, 2024) can be followed below.

For data set [1], the system named is J774.A1. In words: Antiinflammatory activity against LPS-induced mouse J774.A1 cells assessed as inhibition of IL-6 release at 10 uM pretreated for 30 mins followed by LPS stimulation and measured after 24 hrs by ELISA relative to control. Format: functional. The note with it: time 24.5 hrs. On the technique in general: In an ELISA, binding on a coated surface is turned into a signal by an enzyme label.

Data set [2] relates to THP-1. In words: Antiinflammatory activity against LPS-induced PMA-differentiated human THP-1 cells assessed as inhibition of TNF-alpha release pretreated for 30 mins followed by LPS stimulation and measured after 24 hrs by ELISA. Format: functional, cell-based.
The nature of data set [3]: Half life in male Sprague-Dawley rat at 10 mg/kg, po by UPLC-MS/MS analysis. The note with it: in vivo. Format: ADME, organism-based.
The nature of data set [4]: Acute toxicity in ICR mouse assessed as pathological changes in liver at 500 mg/kg, po measured daily for 10 days by H and E staining based analysis. Format: organism-based. The note with it: in vivo, 240 h, time 10 day.
Data set [5] is described as follows: Acute toxicity in ICR mouse assessed as pathological changes in spleen at 500 mg/kg, po measured daily for 10 days by H and E staining based analysis. Format: organism-based. The settings on record: in vivo, 240 h, time 10 day.
Data set [6] concerns J774.A1. In words: Inhibition of MAPK signaling pathway in LPS-stimulated mouse J774.A1 cells assessed as reduction in ERK1/2 phosphorylation at 10 uM pretreated for 2 hrs followed by LPS stimulation and measured after 30 mins by Western blot analysis. Format: cell-based. The note with it: time 2.5 hrs. For orientation: In western blotting, separated proteins are transferred to a membrane and probed.

For data set [7], the target named is Interleukin-1 receptor-associated kinase 1 (Homo sapiens) (UniProt P51617). Kind of data set: Inhibition of IRAK1 (unknown origin) at 10 uM relative to control.
Data set [8] has as its system Mus musculus. In words: Antiinflammatory activity against C57BL/6 mouse model of DSS induced ulcerative colitis assessed as reversal of weight loss at 20 mg/kg, po administered daily for 10 days. Format: functional, organism-based. The note with it: time 10.0 day.
The subject of data set [9] is Mus musculus. In words: Antiinflammatory activity against C57BL/6 mouse model of DSS induced ulcerative colitis assessed as reversal of splenomegaly at 20 mg/kg, po administered daily for 10 days. Format: functional, organism-based. The settings on record: time 10.0 day.
Data set [10] concerns Mus musculus. In words: Antiinflammatory activity against C57BL/6 mouse model of DSS induced ulcerative colitis assessed as reversal of splenomegaly at 100 mg/kg, po administered daily for 10 days. Format: functional, organism-based. The note with it: time 10.0 day.
Data set [11] concerns Mus musculus. Kind of data set: Antiinflammatory activity against C57BL/6 mouse model of DSS induced ulcerative colitis assessed as protection against crypt necrosis at 20 mg/kg, po administered daily for 10 days by H and E staining based analysis. Format: functional, organism-based. The note with it: time 10.0 day.
Data set [12] relates to Mus musculus. In words: Antiinflammatory activity against C57BL/6 mouse model of LPS induced acute lung injury assessed as reduction in IL-6 level in BALF at 20 mg/kg, po administered every 12 hrs for 3 times followed by LPS stimulation for 6 hrs starting from 30 mins post last dose by ELISA. Format: functional, organism-based. The note with it: time 42.5 hrs.
For data set [13], the system named is Mus musculus. Kind of data set: Antiinflammatory activity against C57BL/6 mouse model of LPS induced acute lung injury assessed as reduction in inflammatory cell infiltration at 20 mg/kg, po administered every 12 hrs for 3 times followed by LPS stimulation for 6 hrs starting from 30 mins post last dose by H and E staining based analysis. Format: functional, organism-based. The settings on record: time 42.5 hrs.

Data set [14] concerns Mus musculus. Kind of data set: Antiinflammatory activity against C57BL/6 mouse model of LPS induced acute lung injury assessed as reduction in thickening of alveolar septa at 20 mg/kg, po administered every 12 hrs for 3 times followed by LPS stimulation for 6 hrs starting from 30 mins post last dose by H and E staining based analysis. Format: functional, organism-based. The note with it: time 42.5 hrs.

Data set [15] deals with Mus musculus. Kind of data set: Antiinflammatory activity against C57BL/6 mouse model of LPS induced acute lung injury assessed as reduction in interstitial edema at 20 mg/kg, po administered every 12 hrs for 3 times followed by LPS stimulation for 6 hrs starting from 30 mins post last dose by H and E staining based analysis. The settings on record: time 42.5 hrs. Format: functional, organism-based.

Data set [16] has as its system Mus musculus. Kind of data set: Antiinflammatory activity against C57BL/6 mouse model of LPS induced acute lung injury assessed as reduction in TNF-alpha mRNA expression in lung at 20 mg/kg, po administered every 12 hrs for 3 times followed by LPS stimulation for 6 hrs starting from 30 mins post last dose by RT-qPCR analysis. Format: functional, organism-based. The note with it: time 42.5 hrs.

The structures appear in SMILES notation. pIC50: −log10 of the molar value. The source made the active and inactive calls. The calls are words filed in the database; no cut-off is given here.

Sequence of Interleukin-1 receptor-associated kinase 1 (Homo sapiens) (P51617 whole entry, looked up): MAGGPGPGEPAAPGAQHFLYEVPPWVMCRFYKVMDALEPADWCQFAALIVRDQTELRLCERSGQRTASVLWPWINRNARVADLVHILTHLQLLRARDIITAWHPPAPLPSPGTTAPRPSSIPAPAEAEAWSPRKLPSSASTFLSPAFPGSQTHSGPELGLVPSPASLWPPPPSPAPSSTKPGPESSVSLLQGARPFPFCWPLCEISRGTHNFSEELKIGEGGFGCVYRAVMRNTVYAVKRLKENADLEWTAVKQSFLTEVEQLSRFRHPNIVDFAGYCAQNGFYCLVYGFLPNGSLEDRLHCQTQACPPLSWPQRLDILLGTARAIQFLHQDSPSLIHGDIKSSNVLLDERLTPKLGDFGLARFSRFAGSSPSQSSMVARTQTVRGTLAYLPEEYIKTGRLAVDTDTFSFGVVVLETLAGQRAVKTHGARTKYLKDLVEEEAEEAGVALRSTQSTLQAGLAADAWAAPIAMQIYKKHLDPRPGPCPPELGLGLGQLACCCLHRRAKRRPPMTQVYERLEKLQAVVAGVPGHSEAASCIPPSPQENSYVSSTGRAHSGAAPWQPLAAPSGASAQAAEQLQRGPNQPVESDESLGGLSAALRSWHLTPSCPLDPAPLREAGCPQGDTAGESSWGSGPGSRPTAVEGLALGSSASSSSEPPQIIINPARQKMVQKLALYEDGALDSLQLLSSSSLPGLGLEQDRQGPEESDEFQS

The inhibition is the drop in the measured response relative to a control, in per cent. Usually pIC50 stands for the negative decadic logarithm of the IC50, by convention in mol/L. By half-life is commonly meant how long it takes for the measured level to halve. A lower half-life goes with fast loss. Turning to `CC(C)=CCc1c(OCCCCNCCN2CCOCC2)ccc2ccc(=O)oc12`, the inhibition at 10 µM in [1] was 95%. The pIC50 in [2] is 4.56. Also, in data set [3], the half-life is 10.7 h. In addition, the Activity entry in data set [4] and in data set [5] was “Non-Toxic” each time. Moreover, the inhibition entry in [6] was “inactive”. In data set [7], this compound came in with an inhibition of 10.3%. In addition, the result in data set [8], in data set [9], in data set [10], in data set [11], in data set [12] and in data set [13] was Active. The outcome in data set [14], in data set [15] and in [16] was Active.
